Tests used:
[1] = test system: rat peritoneal mesothelial cells; assay: Cytotoxicity study, LDH release; assay type: cell-based; conditions: rat PMCs, 72 hours, FIG. 5
Experimental: The cells were treated with carrier or aliskiren for 72 hours and cell viability was evaluated quantifying the LDH released into the culture medium. The data is expressed as mean±SEM, n=12. * p<0.05 compared to the control (carrier).
(§1) Rat peritoneal mesothelial cells were isolated by enzymatic digestion in accordance with protocols described in Hjelle J T, Golinska B T, Waters D C, et al. Perit Dial Int 1989; 9: 341-7. Briefly, female rats weighing 200-400 g of the Spragle-Dawley strain were sacrificed pursuant to Royal Decree 1201/2005, of 10 Oct., on protection of animals used for experimental and other scientific purposes. The abdominal cavity was quickly opened and the abdominal wall (peritoneum and smooth muscle) extracted under sterile conditions. […]
To this end, the cells were seeded on 24-well plates and exposed to the peritoneal dialysis solutions object of the present invention to study their toxicity. The toxic effects were evaluated measuring cell membrane rupture and the consequent release of LDH to the supernatant through the CytoTox96® kit (Promega). […] Absorbance of the lysate and cell supernatant was obtained using a microplate spectrophotometer at a wavelength of 490 nm, following the manufacturer's instructions.

[2] = test system: reactive oxygen species (ROS) in rat PMCs; assay: Reactive oxygen species by flow cytometry (DCF); assay type: cell-based; conditions: D-glucose 50 mM and 83 mM, 8 hours, aliskiren 10-100 μM, FIG. 6
Experimental: The cells were incubated in D-glucose at 50 mM (A) and 83 mM (B) for 8 hours in the presence or absence of aliskiren (10-100 μM) and dichlorofluorescein (DCF) intensity was measured using flow cytometry, as described in Material and Methods. The data is expressed as mean±SEM, n=3. * p<0.05 compared to untreated cells (control). # p<0.05, compared to cells treated with D-glucose in the presence of carrier (0).
as §1
After washing with PBS, the cells were incubated with 5.6-chloromethyl-2,7-dichlorodihydrofluorescein diacetate (CM-H2DCFDA, Invitrogen) for 15 minutes at 37° C., following the standard protocol (Lee H B, 2004). […] The production of reactive oxygen species was calculated on the basis of evaluation of 10,000 cells per experimental condition.

fibronectin = assay: Real-time RT-PCR in PMCs from dialysed rats; assay type: in vivo, rat; conditions: peritoneal cells from rats dialysed four weeks, aliskiren 0.1 or 1 mg/Kg, FIG. 17
Experimental: The rats were exposed daily for four weeks to carrier (saline serum), 1.5% PDF, 2.3% PDF or 4.5% PDF supplemented by carrier, 0.1 mg/Kg aliskiren or 1 mg/Kg aliskiren. The data is expressed as mean±SEM, n=6 rats per group.* p<0.05, compared to the group treated with carrier in the absence of aliskiren (carrier). # p<0.05, compared to their respective groups treated with PDFs in the absence of aliskiren. […]
At the end of the experimental period (four weeks), 30 ml of a commercial PDF with 2.3% glucose (Fresenius Medical Car, Bad Homburg, Germany) was administered intraperitoneally using a 22G needle. […] Their body weight was measured at the start and end of the experimental period. […]
The blood and dialysate samples were centrifuged and stored at −20° C. The concentrations of creatinine and glucose in the serum and dialysate were measured using enzymatic methods. The peritoneal transport of solutes was calculated, on one hand, as the glucose concentration in the dialysate 2 hours after the PET relative to the initial glucose concentration in the PDF (D2/D0 glucose) and, on the other, as the dialysate/plasma creatinine concentration ratio (D2/P2 creatinine) 2 h after the PET. […]
The RNA expression was evaluated by real-time RT-PCR in PMCs. […] RNA quality and concentration was evaluated by spectrophotometry (Infinite 200, Tecan, Salzburg, Austria) using 1 μl of the RNA sample. […]

`COCCCOc1cc(C[C@@H](C[C@H](N)[C@@H](O)C[C@H](C(=O)NCC(C)(C)C(N)=O)C(C)C)C(C)C)ccc1OC` [aliskiren] was tested, and the “concentration at which toxicity with respect to mesothelial cells is shown (LDH released)” value [1] was at least 1000 µM, the “production of reactive oxygen species” value [2] was “prevented” and the “RNAm expression of fibronectin” value (fibronectin) was “increased”.
